Patent publication US11560400B2, “Salts of diphosphate phosphoramidate of nucleosides as anticancer compounds” (NuCana plc, priority 2017, dated 2023)
Counter-ions that a name gives are not always drawn. Like-named read-outs stand apart in the source and are kept apart here.

Columns and labels:
K562 = experiment: CellTiterGlo cell viability assay, K562; format: cell-based; settings: for inhibition at 198 µM: read-out: Top Inh; for EC50: read-out: Ab EC50
Method: (§1) A subset of compounds of the invention were assayed for their cytotoxic activity in an array of different solid tumours and haematological malignancies using the following assay.
(§2) In vitro viability assay were performed to assess the effects of compounds on cell viability in selected cell lines over 72 h using the CellTiterGlo (CTG, Promega-G7573) assay. The tests were performed in duplicates with treatment of compounds at 9 points, 3.16 folds titration in 96 well plates over ˜72 h. The compound starting concentrations were 198 μM. Cell viability assay using CellTiterGlo in 96-well plate were performed. Compound treatment 72 h, standard growth conditions, duplicates. Compounds were dissolved to 40 mM with thawed […]. Compounds were serially diluted at 3.16 fold in thawed DMSO, and warmed to 37° C. before being dissolved in media (2 μL+200 μL). After compounds were dissolved in media, media containing compounds were warmed to 37° C. in incubator and then compounds in media were added to cell plates (50 μL+50 μL) in duplicates. The compounds' final concentrations were from 198 μM to 19.8 nM. All compound solubilities were checked and recorded again, then the plates were transferred to CO2 tissue culture incubator immediately and incubated for 3 days. DMSO final concentration is 0.5%. The parent nucleoside in each case was tested as a comparator, as was an exemplary ProTide. The drugs of the ProTide class that were tested were as follows:
(§3) The following cell lines were tested and are referred to in the Table 1 below:
(§4) In Tables 2, 3 and 4, ‘Ab EC50’ refers to the absolute EC50 and ‘Top inhibit’ refers to the percentage inhibition achieved at the highest concentration tested.

HL-60 = experiment: CellTiterGlo cell viability assay, HL-60; format: cell-based; settings: HL-60, 72 h; for EC50: read-out: Ab EC50; for inhibition at 198 µM: read-out: Top Inh
Method: as §1, §2, §3, §4

HT29 = experiment: CellTiterGlo cell viability assay, HT29; format: cell-based; settings: HT29, 72 h; for EC50: read-out: Ab EC50; for inhibition at 198 µM: read-out: Top Inhibit
Method: as §1, §2, §3, §4

MOLT-4 = experiment: CellTiterGlo cell viability assay, MOLT-4; format: cell-based; settings: MOLT-4, 72 h; for inhibition at 198 µM: read-out: Top Inh; for EC50: read-out: Ab EC50
Method: as §1, §2, §3, §4

RL = experiment: CellTiterGlo cell viability assay, RL; format: cell-based; settings: 72 h; for EC50: read-out: Ab EC50; for inhibition at 198 µM: read-out: Top Inh
Method: as §1, §2, §3, §4

Mia-Pa-Ca-2 = experiment: CellTiterGlo cell viability assay, Mia-Pa-Ca-2; format: cell-based; settings: Homo sapiens, MIA PaCa-2, Mia-Pa-Ca-2, 72 h
Method: as §1, §2, §3, §4

KG-1 = experiment: CellTiterGlo cell viability assay, KG-1; format: cell-based; settings: KG-1, 72 h; for EC50: Table 4 classes, read-out: Ab EC50; for inhibition at 198 µM: read-out: Top Inhibit
Method: as §1, §2, §3, §4

CCRF-CEM = experiment: CellTiterGlo cell viability assay, CCRF-CEM; format: cell-based; settings: 72 h; for EC50: Table 4 classes, read-out: Ab EC50; for inhibition at 198 µM: read-out: Top Inh
Method: as §1, §2, §3, §4

HepG2 = experiment: CellTiterGlo cell viability assay, HepG2; format: cell-based; settings: HepG2, 72 h; for inhibition at 198 µM / EC50: Homo sapiens; for inhibition at 198 µM: read-out: Top Inhibit; for EC50: Table 4 classes, read-out: Ab EC50
Method: as §1, §2, §3, §4

MCF-7 = experiment: CellTiterGlo cell viability assay, MCF-7; format: cell-based; settings: MCF-7, 72 h, percentage inhibition at the highest concentration tested; for inhibition at 198 µM: Homo sapiens, MCF7, 72 h, read-out: Top Inhibit
Method: as §1, §2, §3, §4

RPMI-8226 = experiment: CellTiterGlo cell viability assay, RPMI-8226; format: cell-based, Human; settings: RPMI-8226, 72 h; for EC50: Table 4 classes, read-out: Ab EC50; for inhibition at 198 µM: read-out: Top Inh
Method: as §1, §2, §3, §4

OVCAR 3 = experiment: CellTiterGlo cell viability assay, OVCAR 3; format: cell-based; settings: for inhibition at 198 µM: OVCAR-3, 72 h, read-out: Top Inhibit; for EC50: Table 4 classes, read-out: Ab EC50
Method: as §1, §2, §3, §4

[1] = Homo sapiens, K562, 72 h, percentage inhibition at the highest concentration tested
[2] = Homo sapiens, absolute EC50, numeric values
[3] = Homo sapiens, percentage inhibition at the highest concentration tested
[4] = Homo sapiens, HT-29, 72 h, percentage inhibition at the highest concentration tested
[5] = Homo sapiens, K562, K 562, 72 h, Table 4 classes
[6] = Homo sapiens, HT-29, 72 h, Table 4 classes
[7] = percentage inhibition at the highest concentration tested

SMILES | inhibition at 198 µM (K562; [1]) | inhibition at 198 µM (HL-60; [3]) | inhibition at 198 µM (HT29; [4]) | inhibition at 198 µM (MOLT-4; [3]) | inhibition at 198 µM (RL; [3]) | EC50 (K562; [5]) | EC50 (HL-60; Homo sapiens, Table 4 classes) | EC50 (KG-1; Homo sapiens) | inhibition at 198 µM (KG-1; [3]) | EC50 (CCRF-CEM; Homo sapiens) | inhibition at 198 µM (CCRF-CEM; [3]) | EC50 (HT29; [6]) | inhibition at 198 µM (HepG2; [7]) | EC50 (MOLT-4; Homo sapiens, Table 4 classes) | inhibition at 198 µM (MCF-7) | EC50 (RPMI-8226; Homo sapiens) | inhibition at 198 µM (RPMI-8226; [3]) | inhibition at 198 µM (OVCAR 3; [3]) | EC50 (OVCAR 3; Homo sapiens, OVCAR 3, 72 h) | EC50 (HepG2) | other results
C[C@H](NP(=O)(Oc1ccccc1)OP(=O)(O)OC[C@@H]1C[C@H](O)[C@H](n2cnc3c(N)ncnc32)O1)C(=O)OCc1ccccc1 (stereo partly drawn) [Example 6, 3′-Deoxyadenosine-5′-O-[phenyl(benzoxy-L-alaninyl)] Diphosphate Triethylammonium Salt] | 81% | 80% | 82% | 95% | 72% |  |  |  |  |  |  |  |  |  |  |  |  |  |  |  | EC50 (K562; Homo sapiens, K562, 72 h, absolute EC50, numeric values): 52300 nM; EC50 (HL-60; [2]): 62500 nM; EC50 (HT29; Homo sapiens, HT-29, 72 h, absolute EC50, numeric values): 24300 nM; EC50 (MOLT-4; [2]): 14200 nM; EC50 (RL; [2]): 88800 nM; EC50 (Mia-Pa-Ca-2; absolute EC50, read-out: Ab EC50): 40900 nM; inhibition at 198 µM (Mia-Pa-Ca-2; percentage inhibition at the highest concentration tested, read-out: Top Inhibit): 95.7%
Nc1nc(Cl)nc2c1ncn2[C@@H]1O[C@H](COP(=O)(O)OP(=O)(N[C@@H](Cc2ccccc2)C(=O)OCc2ccccc2)Oc2ccccc2)C(O)[C@H]1F (stereo partly drawn) [Example 22, 2-Chloro-9-(2′-Deoxy-2′-fluoro-β-D-arabinofuranosyl)adenine-5′-O-[l-phenyl(benzoxy-L-phenylalaninyl)] Diphosphate Triethylammonium Salt] | 62% | 95% | 69% | 89% | 42% | > 10000 nM | < 200 nM | < 200 nM | 92% | < 200 nM | 99% | 200 to 1000 nM | 47% | < 200 nM | 50% | 1000 to 5000 nM | 86% | 73% | > 10000 nM |  | 
Nc1nc(Cl)nc2c1ncn2[C@@H]1O[C@H](COP(=O)(O)OP(=O)(Oc2ccccc2)N2CCCC2C(=O)OCc2ccccc2)[C@H](O)C1F (stereo partly drawn) [Example 23, 2-Chloro-9-(2′-Deoxy-2′-fluoro-β-D-arabinofuranosyl)adenine-5′-O-[1-phenyl(benzoxy-L-prolinyl)] Diphosphate Triethylammonium Salt] | 35% | 96% | 68% | 89% | 39% | > 10000 nM | < 200 nM | < 200 nM | 93% | < 200 nM | 99% | 200 to 1000 nM | 51% | < 200 nM | 48% | > 10000 nM | 85% | 63% | > 10000 nM | 1000 to 5000 nM | 
COC(=O)[C@H](CCSC)NP(=O)(Oc1ccccc1)OP(=O)(O)OC[C@H]1O[C@@H](n2cnc3c(N)nc(Cl)nc32)C(F)[C@H]1O (stereo partly drawn) [Example 24, 2-Chloro-9-(2′-Deoxy-2′-fluoro-β-D-arabinofuranosyl)adenine-5′-O-[l-phenyl(methoxy-L-metioninyl)] Diphosphate Triethylammonium Salt] | 49% | 95% | 70% | 88% | 39% | > 10000 nM | < 200 nM | < 200 nM | 91% | < 200 nM | 99% | 200 to 1000 nM | 54% | < 200 nM | 49% | > 10000 nM | 86% | 67% | > 10000 nM | 1000 to 5000 nM | 
CCOC(=O)[C@@H](NP(=O)(Oc1ccccc1)OP(=O)(O)OC[C@H]1O[C@@H](n2cnc3c(N)nc(Cl)nc32)C(F)[C@H]1O)C(C)CC (stereo partly drawn) [Example 25, 2-Chloro-9-(2′-Deoxy-2′-fluoro-β-D-arabinofuranosyl)adenine-5′-O-[l-phenyl(ethoxy-L-isoleucinyl)] Diphosphate Triethylammonium Salt] | 33% | 95% | 67% | 86% | 44% | > 10000 nM | < 200 nM | < 200 nM | 91% | < 200 nM | 99% | 200 to 1000 nM | 49% | < 200 nM | 43% | 1000 to 5000 nM | 83% | 24% | > 10000 nM |  | 
CCN(CC)CC.C[C@H](NP(=O)(Oc1cccc2ccccc12)OP(O)(=S)OC[C@H]1O[C@@H](n2cnc3c(N)nc(Cl)nc32)[C@@H](F)[C@@H]1O)C(=O)OCc1ccccc1 (stereo partly drawn) [Example 26, 2-Chloro-9-(2′-Deoxy-2′-fluoro-β-D-arabinofuranosyl)adenine-5′-O-[l-naphthyl(benzoxy-L-alaninyl)] phosphorothiol-phosphate Triethylammonium Salt] |  |  |  |  |  |  |  |  |  |  |  |  |  |  |  |  |  |  |  |  | EC50 (K562; K 562, 72 h, Table 4 classes): > 10000 nM; Top Inh (K562; K562, 72 h, percentage inhibition at the highest concentration tested): 69%; EC50 (HL-60; Table 4 classes): < 200 nM; Top Inh (HL-60; [7]): 95%; EC50 (KG-1): < 200 nM; Top Inhibit (KG-1; [7]): 91%; EC50 (CCRF-CEM): < 200 nM; Top Inh (CCRF-CEM; [7]): 99%; EC50 (HT29; Table 4 classes): 200 to 1000 nM; Top Inhibit (HT29; [7]): 64%; Top Inhibit (HepG2; [7]): 49%; EC50 (MOLT-4; Table 4 classes): < 200 nM; Top Inh (MOLT-4; [7]): 84%; Top Inhibit (MCF-7): 44%; EC50 (RPMI-8226): 1000 to 5000 nM; Top Inh (RPMI-8226; [7]): 93%; EC50 (OVCAR 3; OVCAR 3, 72 h): > 10000 nM; Top Inhibit (OVCAR 3; OVCAR 3, 72 h, percentage inhibition at the highest concentration tested): 62%; EC50 (RL; Table 4 classes): > 10000 nM; Top Inh (RL; [7]): 56%
